This is an account of results in patent US5298488A, “CM-chitin derivatives and use thereof” (Fuji Photo Film Co., Ltd., priority 1990, dated 1994).

In test [1] the test system is vitronectin. The experiment in a line: Cell adhesion-inhibitory test against vitronectin (competitive assay, number of adhered cells). The note with it: endothelium cells of blood vessel, 37° C., one hour, 0 control 249. In kind it is cell-based, human. An excerpt:
(§1) A method for determining the activity of the CM-chitin derivatives of the present invention for inhibiting adhesion of cells to fibronectin or vitronectin will be described below. The competitive assays used herein have widely been employed tin the field of biochemistry and are detailed in, for instance, "Method in Enzymology", 1981, 82, pp. 803-831; and J. P. KOKAI Nos. Hei 1-309682 and Hei 2-174797.
(§2) Commercially available fibroneotin (derived from human; purchased from Seikaqaku Kogyo K. K.) and vitronectin (derived from human; purchased from Funakoshi Co., Ltd.) each was diluted to 1.0 μ1/ml and 2.0 μ1/ml with PBS (NaH2 PO4 0.005 M+NaCl 0.07 M), 0.5 ml of the resulting diluted solution was dispensed into a plastic plate having 24 wells and incubated at 37° C. overnight to perform coating of the plate. Then bovine serum albumin (BSA 1%) was added followed by incubation at 37° C. for one hour for inhibiting the occurrence of nonspecific adsorption, then washing with PBS in the usual manner and sufficient drainage to give an adsorption plate.
[…] Each of the solutions (0.25 ml) was dispensed to the plate prepared above, 0.25 ml of a suspension of endothelium cells of blood vessel (4×10^6 cells/ml) was added to the plate and incubated at 37° C. for one hour to thus cause cohesion of the cells. The plate was washed three times with DMEM medium to remove non-adhesive cells, then the adhered cells were peeled off with a 0.025% EDTA trypsin solution and stained with a 2% Trypan Blue solution to determine the number of the adhered cells.

Test [2] has as its system fibronectin. Description: Cell adhesion-inhibitory test against fibronectin (competitive assay, number of adhered cells). The note with it: endothelium cells of blood vessel, 37° C., one hour, 0 mg/ml control 160. The class given is cell-based, human.
From the text: as §1, §2
A CM-chitin derivative obtained through lyophilization was diluted with Dulbecco's Modified Eagles Medium (hereunder referred to as "DMEM") to give solutions of the CM-chitin derivative having concentrations of 0, 0.25, 0.5, 1.0 and 1.5 mg/ml respectively. Each of the solutions (0.25 ml) was dispensed to the plate prepared above, 0.25 ml of a suspension of endothelium cells of blood vessel (4×10^6 cells/ml) was added to the plate and incubated at 37° C. for one hour to thus cause cohesion of the cells. The plate was washed three times with DMEM medium to remove non-adhesive cells, then the adhered cells were peeled off with a 0.025% EDTA trypsin solution and stained with a 2% Trypan Blue solution to determine the number of the adhered cells.

The subject of test [3] is human plasma rich in platelet. The experiment in a line: Platelet coagulation-inhibitory activity in vitro, transmittance by aggregometer. In kind it is cell-based. The note with it: 37° C., 3 minutes preincubation; for Platelet Coagulation-Inhibitory Action IC50, ADP Stimulation: ADP stimulation (50 μM ADP solution); for Platelet Coagulation-Inhibitory Action IC50, Collagen Stimulation: collagen stimulation (200 μg/ml collagen solution). The procedure:
The platelet coagulation-inhibitory effect of the CM-chitin derivative of the present invention was assayed, in vitro, using human plasma rich in platelet. The experimental method will be described below.
To fresh human blood, there was added 1/9 volume of a 3.8% sodium citrate solution, the resulting mixture was centrifuged (1000 rpm; for 10 minutes) and the upper layer was separated as a plasma rich in platelet. A lyophilized CM-chitin derivative was dissolved in physiological saline to give a plurality of solutions having various concentrations ranging from 0 to 1.5 mg/ml. Each of the solutions (25 μ1) was added to 200 µl of the plasma, incubated at 37° C. for 3 minutes, then a 50 μM of ADP (adenosine diphosphate) solution or a 200 μg/ml collagen solution was added to determine the extent of coagulation in terms of transmittance determined by an aggregometer.
Rate of Coagulation Inhibition=(1-T/T .)×100%
T . : transmittance observed when a salt of CM-chitin derivative was not added.
T : transmittance observed when a salt of CM-chitin derivative was added.

Setting [4] is: concentration 10 mg/ml (so in the source).
The mark [5] stands for this setting: concentration 50 mg/ml (so in the source).
Where [6] appears, read: concentration 100 mg/ml (so in the source).
Where [7] appears, read: concentration 300 mg/ml (so in the source).

No end group written: not given here. CM‑Chitin = carboxymethyl chitin

Take “CM-Chitin-Gly-Arg-Gly-Asp-Ser-Pro [CM--chitin derivative-19]”: the “Cell Adhesion-Inhibitory effect Against Vitronectin (number of adhered cells)” value in test [1] (setting [4]) is recorded as 130 cell/well; in test [1] (setting [5]), 92 cell/well; in test [1] (setting [6]), 63 cell/well; in test [1] (setting [7]) it was 39 cell/well. For the same substance, the “Cell Adhesion-Inhibitory effect Against Fibronectin (number of adhered cells)” value in test [2] (concentration 0.5 mg/ml) came out at 106 cell/well; in test [2] (concentration 1.0 mg/ml) it was 79 cell/well; in test [2] (concentration 1.5 mg/ml) it was 56 cell/well; in test [2] (concentration .25 mg/ml) it was 127 cell/well. The “Platelet Coagulation-Inhibitory Action IC50, ADP Stimulation” value in test [3] turned out to be 19 µg/mL. Moreover, the “Platelet Coagulation-Inhibitory Action IC50, Collagen Stimulation” value in test [3] turned out to be 5 µg/mL.

On to “CM-chitin-Arg-Gly-Asp-Ser-Gly-NH2 ({CM‑Chitin}-RGDSG-NH2; also: conjugated to CM-chitin) [CM--chitin derivative-17]”, for which the “Cell Adhesion-Inhibitory effect Against Vitronectin (number of adhered cells)” value in test [1] (setting [4]) was found to be 114 cell/well; in test [1] (setting [5]), 76 cell/well; in test [1] (setting [6]) it was 48 cell/well; in test [1] (setting [7]), 33 cell/well. Moreover, the “Cell Adhesion-Inhibitory effect Against Fibronectin (number of adhered cells)” value is recorded as 84 cell/well in test [2] (concentration 0.5 mg/ml), 61 cell/well in test [2] (concentration 1.0 mg/ml), 35 cell/well in test [2] (concentration 1.5 mg/ml) and 99 cell/well in test [2] (concentration .25 mg/ml). The “Platelet Coagulation-Inhibitory Action IC50, ADP Stimulation” value in test [3] was found to be 14 µg/mL. Further, in test [3], the “Platelet Coagulation-Inhibitory Action IC50, Collagen Stimulation” value was found to be 5 µg/mL.

Take “Itaconyl Derivative of CM-Chitin Arg-Gly-Asp-Ser (RGDS; also: conjugated to itaconyl CM-chitin) [CM--chitin derivative-5]”: the “Cell Adhesion-Inhibitory effect Against Vitronectin (number of adhered cells)” value in test [1] (setting [4]) worked out at 129 cell/well; in test [1] (setting [5]) it was 91 cell/well; in test [1] (setting [6]), 80 cell/well; in test [1] (setting [7]), 48 cell/well. Moreover, the “Cell Adhesion-Inhibitory effect Against Fibronectin (number of adhered cells)” value in test [2] (concentration 0.5 mg/ml) was determined as 105 cell/well; in test [2] (concentration 1.0 mg/ml), 86 cell/well; in test [2] (concentration 1.5 mg/ml), 72 cell/well; in test [2] (concentration .25 mg/ml), 136 cell/well. For the same substance, the “Platelet Coagulation-Inhibitory Action IC50, ADP Stimulation” value in test [3] is 17 µg/mL. Also, the “Platelet Coagulation-Inhibitory Action IC50, Collagen Stimulation” value in test [3] stood at 12 µg/mL.

“Maleyl Derivative of CM-Chitin Arg-Gly-Asp-Ser (RGDS; also: conjugated to maleyl CM-chitin) [CM--chitin derivative-3]”: the “Cell Adhesion-Inhibitory effect Against Vitronectin (number of adhered cells)” value worked out at 141 cell/well in test [1] (setting [4]), 87 cell/well in test [1] (setting [5]), 69 cell/well in test [1] (setting [6]) and 49 cell/well in test [1] (setting [7]). For the same substance, the “Cell Adhesion-Inhibitory effect Against Fibronectin (number of adhered cells)” value in test [2] (concentration 0.5 mg/ml) was 100 cell/well; in test [2] (concentration 1.0 mg/ml) it was 77 cell/well; in test [2] (concentration 1.5 mg/ml), 55 cell/well; in test [2] (concentration .25 mg/ml), 123 cell/well. Besides, the “Platelet Coagulation-Inhibitory Action IC50, ADP Stimulation” value in test [3] turned out to be 21 µg/mL. Moreover, in test [3], the “Platelet Coagulation-Inhibitory Action IC50, Collagen Stimulation” value came to 7 µg/mL.

As for “Phthaloyl derivative of CM-Chitin Arg-Gly-Asp-Ser (RGDS; also: conjugated to phthaloyl CM-chitin) [CM--chitin derivative-4]”, the “Cell Adhesion-Inhibitory effect Against Vitronectin (number of adhered cells)” value in test [1] (setting [4]) is recorded as 145 cell/well; in test [1] (setting [5]), 90 cell/well; in test [1] (setting [6]) it was 67 cell/well; in test [1] (setting [7]), 45 cell/well. Also, the “Cell Adhesion-Inhibitory effect Against Fibronectin (number of adhered cells)” value was 121 cell/well in test [2] (concentration 0.5 mg/ml), 80 cell/well in test [2] (concentration 1.0 mg/ml), 67 cell/well in test [2] (concentration 1.5 mg/ml) and 141 cell/well in test [2] (concentration .25 mg/ml). Besides, in test [3], the “Platelet Coagulation-Inhibitory Action IC50, ADP Stimulation” value turned out to be 29 µg/mL. For the same substance, the “Platelet Coagulation-Inhibitory Action IC50, Collagen Stimulation” value in test [3] stood at 15 µg/mL.

For the substance “Succinylated CM-Chitin Arg-Gly-Asp [CM--chitin derivative-9]”, the “Cell Adhesion-Inhibitory effect Against Vitronectin (number of adhered cells)” value worked out at 139 cell/well in test [1] (setting [4]), 88 cell/well in test [1] (setting [5]), 77 cell/well in test [1] (setting [6]) and 58 cell/well in test [1] (setting [7]). The “Cell Adhesion-Inhibitory effect Against Fibronectin (number of adhered cells)” value is given as 97 cell/well in test [2] (concentration 0.5 mg/ml), 85 cell/well in test [2] (concentration 1.0 mg/ml), 65 cell/well in test [2] (concentration 1.5 mg/ml) and 121 cell/well in test [2] (concentration .25 mg/ml). In addition, in test [3], the “Platelet Coagulation-Inhibitory Action IC50, ADP Stimulation” value was 28 µg/mL. Further, in test [3], the “Platelet Coagulation-Inhibitory Action IC50, Collagen Stimulation” value amounted to 9 µg/mL.

“Succinylated CM-Chitin Gly-Arg-Gly-Asp-Ser (GRGDS; also: conjugated to succinylated CM-chitin) [CM--chitin derivative-8]”: the “Cell Adhesion-Inhibitory effect Against Vitronectin (number of adhered cells)” value stood at 130 cell/well in test [1] (setting [4]), 95 cell/well in test [1] (setting [5]), 69 cell/well in test [1] (setting [6]) and 47 cell/well in test [1] (setting [7]). The “Cell Adhesion-Inhibitory effect Against Fibronectin (number of adhered cells)” value in test [2] (concentration 0.5 mg/ml) came out at 113 cell/well; in test [2] (concentration 1.0 mg/ml), 80 cell/well; in test [2] (concentration 1.5 mg/ml) it was 59 cell/well; in test [2] (concentration .25 mg/ml) it was 130 cell/well. The “Platelet Coagulation-Inhibitory Action IC50, ADP Stimulation” value in test [3] turned out to be 24 µg/mL. In addition, in test [3], the “Platelet Coagulation-Inhibitory Action IC50, Collagen Stimulation” value stood at 14 µg/mL.
